Results published in article PMC12516379, “Rotamer-Controlled Self-Immolative Linkers Enable Tunable Release of Neurosteroid Oxime Prodrugs” (ACS Medicinal Chemistry Letters, 2025).

Columns and labels:
[1] = Stability in acetate buffer pH 5.0 at room temperature via HPLC (UV); format: physicochemical
Procedure: (§1) Stability studies were conducted in PBS and acetate buffer utilizing high performance liquid chromatography for potential drug storage considerations. […]
(§2) All experiments were performed in duplicate and results are presented as the average of two experimental replicates.
(§3) 1.1 Aqueous Stability in PBS and Acetate Buffer via HPLC
(§4) Material and Instrumentation
(§5) HPLC grade acetonitrile (MeCN) […] HPLC grade water (H 2O), and formic acid (FA) were purchased from Fisher Scientific.
(§6) Puradisc 4 mm PTFE (0.45 μm) syringe filters from Cytiva. Gibco ® Dulbecco’s phosphate-buffered saline (DPBS 1X, no calcium, no magnesium, pH = 7.03) and acetate buffer (pH = 5.0, 10 mM) were purchased directly from Thermo Fisher Scientific and Cytiva, respectively.
(§7) Aqueous stability experiments were performed on an Agilent 1100 HPLC equipped with an Agilent G1315B diode array detector, an Agilent G1316A heated column compartment, and a Zorbax Eclipse XDB-C18 (4.6 x 150 mm, 5 μm) column.
(§8) Procedure for Aqueous Stability Experiments
(§9) Each sample was first weighed out in two separate 2.0 mL vials using an analytical balance.
(§10) Unless otherwise specified, the test compounds were then dissolved in the aqueous media (PBS or acetate buffer) at a standard concentration of 1 mg/mL. All mixtures were subsequently sonicated for approximately 30 sec. […]
(§11) min), precipitates observed in sample solutions were filtered with a PTFE syringe filter prior to analysis. Immediately after sample preparation, injection by the HPLC autosampler was performed, which was recorded as the initial time point (t = 0 min). Solutions were then kept in the autosampler at RT and reinjected at designated intervals without additional filtration or sample modification. Remaining prodrug was defined by the area under the curve (AUC) at 254 nm. Aqueous stability was ascertained by calculating the percentage of the parent compound remaining after each time point. Linear regression of the time (x-axis) vs. ln(%remaining) (y-axis) plot afforded the rate constant k (slope = -k). Pseudo first-order half-lives were then calculated by the following equation: t1/2 = 0.693/k.

[2] = Stability in PBS at room temperature via HPLC (UV); format: physicochemical; settings: phosphate-buffered saline (DPBS)
Procedure: as §1, §2, §3, §4, §5, §6, §7, §8, §9, §10, §11

[3] = PBS stability assay at 37 °C via LC-MS/MS; format: physicochemical; settings: for half-life at 3 µM / remaining at 2 h, 3 µM: phosphate-buffered saline (DPBS); for half-life at 3 µM: pH 7.03, PBS; for PBS, 37 °C %rem. at 2h (Table S23) / half-life at 3 µM / remaining at 2 h, 3 µM: 37 °C; for remaining at 2 h, 3 µM: pH 7.03, read-out: % Remaining @ 2h, PBS, 37 °C (Tables S25, S26)
[4] = Plasma stability assay at 37 °C via LC-MS/MS, human plasma; format: in vitro ADME; settings: for half-life at 3 µM: human, plasma;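 as to all read-outs here: prodrugs at 3 µM incubated in human plasma at 37 °C, intact prodrug quantified by LC-MS/MS over time, values are means of duplicate runs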
[5] = Aqueous solubility by visual inspection in acetate buffer (pH 5); settings: sodium acetate buffer
Procedure: For the solubility assessment, acetate buffer (pH 5) was selected as the media of choice to ensure prodrug stability during analysis.
High aqueous solubility was determined by visual inspection of 5 mg solid material in 0.5 mL
sodium acetate buffer solution. This media was selected to ensure stability of prodrugs during
dissolution in 50 mg/mL aqueous media.

[6] = pH 5, acetate buffer pH 5.0, RT, 1 mg/mL, HPLC 254 nm, read-out: t1/2 in acetate buffer at RT (Tables S5-S8) (converted)
[7] = pH 5, acetate buffer pH 5.0, rt, read-out: t½: pH 5.0, rt (Table S23) (converted)
[8] = pH 7.03, DPBS pH 7.03, RT, 1 mg/mL, HPLC 254 nm, read-out: t1/2 in PBS buffer at RT (Tables S1-S4) (converted)
[9] = pH 7.03, PBS, rt, read-out: t½: PBS, rt (Table S23) (converted)
[10] = 3 µM, LC-MS/MS, read-out: t1/2 in PBS at 37 °C (Tables S14-S17) (converted)
[11] = read-out: PBS, 37 °C t½ (Table S23) (converted)
[12] = read-out: t1/2 (h) PBS, 37 °C (Tables S25, S26) (converted)
[13] = 3 µM, LC-MS/MS, read-out: t1/2 in human plasma at 37 °C (Tables S10-S13, S18) (converted)
[14] = read-out: Plasma, 37 °C t½ (Table S23) (converted)
[15] = pH 5, aqueous buffer, thermodynamic from solid
[16] = pH 5, acetate buffer pH 5.0, rt, HPLC (UV), read-out: Half-life (t½) pH 5.0 rt (converted)
[17] = pH 7.03, PBS, rt, HPLC (UV), read-out: Half-life (t½) PBS rt (converted)
[18] = LC-MS/MS, read-out: Half-life (t½) PBS 37°C (converted)
[19] = LC-MS/MS, read-out: Half-life (t½) Plasma 37°C (converted)

Row | SMILES | half-life at 1 mg/mL [1, 6] [h] | half-life at 1 mg/mL [1, 7] [h] | half-life at 1 mg/mL [2, 8] [h] | half-life at 1 mg/mL [2, 9] [h] | PBS, 37 °C %rem. at 2h (Table S23) ([3]; PBS) [%] | half-life at 3 µM [3, 10] [h] | half-life at 3 µM [3, 11] [h] | half-life at 3 µM [3, 12] [h] | remaining at 2 h, 3 µM ([3]; PBS) [%] | Plasma, 37 °C %rem. at 2h (Table S23) [4] [%] | half-life at 3 µM [4, 13] [h] | half-life at 3 µM [4, 14] [h] | solubility [5, 15] [µg/mL] | half-life at 1 mg/mL [1, 16] [h] | half-life at 1 mg/mL [2, 17] [h] | half-life at 3 µM [3, 18] [h] | half-life at 3 µM [4, 19] [h] | half-life at 1 mg/mL ([1]; pH 5, acetate buffer pH 5.0, RT, HPLC 254 nm, read-out: t1/2 in acetate buffer at RT) [h] | Prodrug stability / self-immolation in buffer, in words ([3]; PBS) | solubility ([5]; pH 5) [µg/mL]
1 | CNCCN(CC(C)C)C(=O)O/N=C(\C)[C@H]1CC[C@H]2[C@@H]3CCC4=CC(=O)CC[C@]4(C)[C@H]3CC[C@]12C.O=C(O)C(F)(F)F [20f] | > 168 | > 168 | 50.7 ± 5.11 | > 24 | 55 | 5.07 | 5.07 | 5.07 | 55 | 95 | 4.78 | 4.78 | > 10000 |  |  |  |  |  |  | 
2 | CNCCN(CCCN1CCOCC1)C(=O)O/N=C(\C)[C@H]1CC[C@H]2[C@@H]3CCC4=CC(=O)CC[C@]4(C)[C@H]3CC[C@]12C.O=C(O)C(F)(F)F [20i] | > 168 | > 168 | 31.2 ± 1.48 | 31.2 | 77 | 5.45 | 5.45 | 5.45 | 77 | 57 | 2.09 | 2.09 | > 10000 |  |  |  |  |  |  | 
3 | CNCCN(CCn1ccnc1)C(=O)O/N=C(\C)[C@H]1CC[C@H]2[C@@H]3CCC4=CC(=O)CC[C@]4(C)[C@H]3CC[C@]12C [20k] | > 168 | > 168 | 47 ± 2.84 | 47 | 70 | 5.99 | 5.99 | 5.99 | 70 | 68 | 3.16 | 3.16 | > 10000 |  |  |  |  |  |  | 
4 | C/C(=N\OC(=O)N(C)C[C@H]1CCCN1)[C@H]1CC[C@H]2[C@@H]3CCC4=CC(=O)CC[C@]4(C)[C@H]3CC[C@]12C.O=C(O)C(F)(F)F [20m] | > 168 | > 168 | 6.15 ± 0.02 | 6.15 | 11 | 0.8 | 0.8 |  |  | 2 | 0.35 | 0.35 | > 10000 |  |  |  |  |  |  | 
5 | C/C(=N\OC(=O)N(C)C[C@@H]1CCN1)[C@H]1CC[C@H]2[C@@H]3CCC4=CC(=O)CC[C@]4(C)[C@H]3CC[C@]12C [20o] | > 168 | > 168 | 6.3 ± 0.09 | 6.3 | 14 | 0.9 | 0.9 |  |  | 1 | 0.29 | 0.29 | > 10000 | > 168 | 6.3 | 0.9 | 0.29 |  |  | 
6 | C/C(=N\OC(=O)N(C)C[C@@H]1CC2(CC2)CN1)[C@H]1CC[C@H]2[C@@H]3CCC4=CC(=O)CC[C@]4(C)[C@H]3CC[C@]12C [20q] | > 168 | > 168 | 4.35 | 4.35 | 5 | 0.7 | 0.7 |  |  | 15 | 0.65 | 0.65 | > 10000 | > 168 | 4.35 | 0.7 | 0.64 |  |  | 
7 | C/C(=N\OC(=O)N(C)C[C@@H]1C[C@H](N(C)C)CN1)[C@H]1CC[C@H]2[C@@H]3CCC4=CC(=O)CC[C@]4(C)[C@H]3CC[C@]12C [20u] | 72 | 72 | 7.53 ± 1.3 | 7.53 |  | 1.08 | 1.08 |  |  | 17 | 0.74 | 0.74 | > 10000 | 72 | 7.53 | 1.08 | 0.73 |  |  | 
8 | C/C(=N\OC(=O)N(CCN(C)C)CCN(C)C)[C@H]1CC[C@H]2[C@@H]3CCC4=CC(=O)CC[C@]4(C)[C@H]3CC[C@]12C [20y] |  |  | 0.017 ± 0.002 | 0.02 | 35 | 1.87 | 1.87 |  |  | 84 | 8.88 | 8.88 |  |  |  |  |  | 0.1322 ± 0.00117 | hydrolytic instability | < 10000
9 | C/C(=N\OC(=O)N(CCO)CCNCCO)[C@H]1CC[C@H]2[C@@H]3CCC4=CC(=O)CC[C@]4(C)[C@H]3CC[C@]12C.Cl [20z] | > 168 | > 168 | 28.8 ± 3.16 | 28.8 | 78 | 6.27 | 6.27 |  |  | 71 | 2.3 | 2.3 | > 10000 |  |  |  |  |  |  | 
